Like-named read-outs stand apart in the source and are kept apart here.
Experiments:
Format in all cases: biochemical
[1] = molecular target: Recombinant human Syk (amino acids 342-635), GST-Syk kinase fusion protein (Homo sapiens (Human), UniProt P43405); assay: Syk kinase test (Kinase Glo luminescence)
Protocol: (§1) The output file of the reader is a csv file that contains the well number and measured relative light units (RLU). For data evaluation and calculation, the measurement of the negative control was set as 100% ctrl and the measurement of the positive control was set as 0% ctrl. Based on this values the % value for the measurement of each substance concentration was calculated using an Assay Explorer software (Accelrys). Normally, the % ctrl values calculated are between 0% and 100% values but may also occur outside these limits in individual cases based on variability or compound characteristics. The IC50 values were calculated from the % ctrl values using Assay Explorer software. Calculation:[y=(a−d)/(1+(x/c)^b)+d] a=low value, d=high value; x=conc M; c=IC50 M; b=hill; y=% ctrl.

FLT3 = FLT3 (Homo sapiens (Human), UniProt P36888); assay: FLT3 kinase test (Z'-LYTE)
Sequence of FLT3 (P36888 27-993): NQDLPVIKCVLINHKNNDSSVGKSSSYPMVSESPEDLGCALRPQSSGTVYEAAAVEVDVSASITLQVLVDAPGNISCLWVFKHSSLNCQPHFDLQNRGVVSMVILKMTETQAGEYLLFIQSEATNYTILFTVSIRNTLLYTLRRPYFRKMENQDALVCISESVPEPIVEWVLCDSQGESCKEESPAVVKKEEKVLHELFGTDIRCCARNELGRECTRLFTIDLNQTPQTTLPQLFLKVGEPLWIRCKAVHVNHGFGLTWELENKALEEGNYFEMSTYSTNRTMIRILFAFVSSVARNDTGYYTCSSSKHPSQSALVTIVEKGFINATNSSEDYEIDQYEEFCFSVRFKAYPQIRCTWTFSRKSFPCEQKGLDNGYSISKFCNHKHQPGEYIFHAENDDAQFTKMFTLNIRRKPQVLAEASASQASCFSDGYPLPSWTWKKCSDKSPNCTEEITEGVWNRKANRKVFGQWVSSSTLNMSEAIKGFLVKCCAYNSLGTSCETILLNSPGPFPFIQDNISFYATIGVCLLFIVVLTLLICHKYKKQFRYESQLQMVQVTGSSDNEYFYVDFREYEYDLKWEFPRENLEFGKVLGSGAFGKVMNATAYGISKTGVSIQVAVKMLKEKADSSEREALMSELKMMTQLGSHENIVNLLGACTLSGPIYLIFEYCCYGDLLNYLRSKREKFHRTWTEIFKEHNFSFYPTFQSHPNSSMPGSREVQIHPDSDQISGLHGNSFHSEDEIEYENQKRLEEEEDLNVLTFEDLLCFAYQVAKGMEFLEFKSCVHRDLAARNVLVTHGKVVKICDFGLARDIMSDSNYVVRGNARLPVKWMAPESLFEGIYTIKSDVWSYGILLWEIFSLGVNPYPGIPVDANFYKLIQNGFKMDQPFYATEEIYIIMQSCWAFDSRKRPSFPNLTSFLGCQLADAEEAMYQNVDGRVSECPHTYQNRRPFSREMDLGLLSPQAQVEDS
Protocol: The activity of FLT3 is measured using the Z′-LYTETM assay technology from Invitrogen (#PV3191)
The reaction is started by addition of 2.5 μl of the 4×ATP solution.
Positive controls are reaction mixtures containing no test compound; negative controls (blanks) are reaction mixtures containing no kinase. As a further control, the phosphopeptide solution is added to wells without kinase (=100% phosphorylation control).
The reaction is performed for 1 h at room temperature before 5 μl of the development solution is added. After a further incubation for 1 h at room temperature 5 μl of the stop reagent is added.
The output text file is evaluated in an “MS-Excel—VB-Makro” and “GraphPadPrism” (Version 5) (GraphPad Software Inc.) is used to calculate the results. Data for the inhibition of FLT3 are reported in M. data for the inhibition of the protease are reported in % CTL.

[2] = molecular target: Recombinant human Aurora B (amino acids 1-344) (Homo sapiens (Human), UniProt Q96GD4); assay: Aurora B kinase test (ADP Glo luminescence)
Sequence of Recombinant human Aurora B (amino acids 1-344) (Q96GD4 whole entry, the tested form may be a part): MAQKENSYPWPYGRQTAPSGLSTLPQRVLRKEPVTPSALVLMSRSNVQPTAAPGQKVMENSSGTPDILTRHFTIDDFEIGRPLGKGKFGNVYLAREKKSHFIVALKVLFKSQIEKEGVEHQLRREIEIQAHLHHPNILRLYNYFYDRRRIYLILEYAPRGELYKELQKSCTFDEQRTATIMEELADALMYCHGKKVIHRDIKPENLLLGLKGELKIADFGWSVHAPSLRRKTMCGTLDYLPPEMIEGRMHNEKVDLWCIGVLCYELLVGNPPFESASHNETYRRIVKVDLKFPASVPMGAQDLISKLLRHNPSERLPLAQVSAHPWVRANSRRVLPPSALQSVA
Protocol: The activity of the Aurora B kinase protein was determined using the ADP Glo® Luminescence Kinase test (Promega; V9103X).
Serial Dilution is done in 1:10 steps in 100% DMSO.
Then 20 μl Kinase detection mix (Detection Buffer #V913B Promega; Kinase Detection Substrate #V914B Promega) were added and incubated for 40 minutes at room temperature.
as §1, with “measured RLU.” for “measured relative light units (RLU).”, “as 0%” for “as 100%”, “as 100%” for “as 0%”, “software. Calculation: [y=(a−d)/(1+(x/c)^b)+d],” for “software. Calculation:[y=(a−d)/(1+(x/c)^b)+d]”

[3] = Table 1, read-out: SYK-inhibition IC50-value
[4] = Table 1, read-out: FLT3-inhibition IC50-value
[5] = Table 1, read-out: AURB-inhibition IC50-value

| Compound | IC50 ([1]; read-out: IC50 in μM (SYK-Inhibition)) [µM] | IC50 (FLT3; read-out: IC50 in μM (FLT3-Inhibition)) [µM] | IC50 ([2]; read-out: IC50 in μM (AURB-Inhibition)) [µM] | IC50 [1, 3] [µM] | IC50 (FLT3; [4]) [µM] | IC50 [2, 5] [µM] | IC50 ([2]; read-out: AURB-inhibition IC50-value) [µM] |
| --- | --- | --- | --- | --- | --- | --- | --- |
| C[C@@H](Oc1cc(-c2ccc3c(c2)ncn3C)cc2ncccc12)[C@H]1CNC(=O)C1 [94 of WO 2013/014060] | 0.001 | 0.267 | 0.298 |  |  |  |  |
| C[C@@H](Oc1nc(-c2cc3nn(C)cc3c(O[C@H](C)[C@H]3CNC(=O)C3)n2)cc2nn(C)cc12)[C@@H]1CNC(=O)C1 [Example 11, (4S)-4-[(1R)-1-[2-methyl-6-[2-methyl-4-[(1R)-1-[(3R)-5-oxopyrrolidin-3-yl]ethoxy]-pyrazolo[4,3-c]pyridin-6-yl]pyrazolo[4,3-c]pyridin-4-yl]oxyethyl]pyrrolidin-2-one] |  |  |  | 0.935 | 37.4 | > 50 |  |
| C[C@@H](Oc1nc(-c2cc3nn(C)cc3c(=O)[nH]2)cc2nn(C)cc12)[C@H]1CNC(=O)C1 [Example 13, 2-Methyl-6-[2-methyl-4-[(1R)-1-[(3R)-5-oxopyrrolidin-3-yl]ethoxy]pyrazolo[4,3-c]pyridin-6-yl]-5H-pyrazolo[4,3-c]pyridin-4-one] |  |  |  | 0.831 | > 50 | > 50 |  |
| C[C@@H](Oc1cc(-c2ccn(C)n2)cc2nn(C)cc12)[C@H]1CNC(=O)C1 [Example 14, (4R)-4-[(1R)-1-[2-methyl-6-(1-methylpyrazol-3-yl)indazol-4-yl]oxyethyl]-pyrrolidin-2-one] |  |  |  | 0.0421 | 40.8 |  |  |
| C[C@@H](Oc1cc(-c2cnn(CCC(F)(F)F)c2)cc2nn(C)cc12)[C@H]1CNC(=O)C1 [Example 15, (4R)-4-[(1R)-1-[2-Methyl-6-[1-(3,3,3-trifluoropropyl)pyrazol-4-yl]indazol-4-yl]oxyethyl]pyrrolidin-2-one] |  |  |  | 0.0187 | 10.1 | 33.4 |  |
| C[C@@H](Oc1cc(-c2n[nH]c3ccc(C#N)cc23)cc2nn(C)cc12)[C@H]1CNC(=O)C1 [Example 16, 3-[2-methyl-4-[(1R)-1-[(3R)-5-oxopyrrolidin-3-yl]-ethoxy]indazol-6-yl]-1H-indazole-5-carbonitrile] |  |  |  | 0.0065 | 10.6 | > 50 |  |
| Cc1nccn1Cc1ccc(-c2cc3nn(C)cc3c(O[C@H](C)[C@H]3CNC(=O)C3)n2)cc1 [Example 17] |  |  |  | 0.0316 | 1.61 | > 50 |  |
| C[C@@H](Oc1cc(-c2ccc(N3CCCS3(=O)=O)cc2)cc2nn(C)cc12)[C@H]1CNC(=O)C1 [Example 33] |  |  |  | 0.0245 | 3.88 | > 50 |  |
| C[C@@H](Oc1cc(-c2cnn(C(F)F)c2)cc2nn(C)cc12)[C@H]1CNC(=O)C1 [Example 40, (4R)-4-[(1R)-1-[6-[1-(difluoromethyl)pyrazol-4-yl]-2-methyl-indazol-4-yl]oxyethyl]pyrrolidin-2-one] |  |  |  | 0.0343 | 8.95 | 31.4 |  |
| C[C@@H](Oc1cc(-c2cnc3ccc(C#N)cn23)cc2nn(C)cc12)[C@H]1CNC(=O)C1 [Example 43, 3-[2-methyl-4-[(1R)-1-[(3R)-5-oxopyrrolidin-3-yl]ethoxy]indazol-6-yl]imidazo[1,2-a]pyridine-6-carbonitrile] |  |  |  | 0.0649 | 15.1 | > 50 |  |
| C[C@@H](Oc1cc(-c2cnn(C3CCOCC3)c2)cc2nn(C)cc12)[C@H]1CNC(=O)C1 [Example 47, (4R)-4-[(1R)-1-[2-methyl-6-(1-tetrahydropyran-4-ylpyrazol-4-yl)indazol-4-yl]oxyethyl]pyrrolidin-2-one] |  |  |  | 0.0067 | 4.77 | 26 |  |
| C[C@@H](Oc1cc(-c2cc3cccc(Cl)c3[nH]2)cc2nn(C)cc12)[C@H]1CNC(=O)C1 [Example 48, (4R)-4-[(1R)-1-[6-(7-chloro-1H-indol-2-yl)-2-methyl-indazol-4-yl]oxyethyl]-pyrrolidin-2-one] |  |  |  | 0.0556 | 16.9 | > 50 |  |
| COc1ccc2[nH]cc(-c3cc4nn(C)cc4c(O[C@H](C)[C@H]4CNC(=O)C4)n3)c2c1 [Example 53, (4R)-4-[(1R)-1-[6-(5-methoxy-1H-indol-3-yl)-2-methyl-pyrazolo[4,3-c]pyridin-4-yl]oxyethyl]pyrrolidin-2-one] |  |  |  |  | 34.1 | > 50 |  |
| Cc1ccc(-c2cc3nn(C)cc3c(O[C@H](C)[C@H]3CNC(=O)C3)n2)s1 [Example 54, (4R)-4-[(1R)-1-[2-methyl-6-(5-methyl-2-thienyl)pyrazolo-[4,3-c]pyridin-4-yl]oxyethyl]-pyrrolidin-2-one] |  |  |  | 0.0892 | 16 | > 50 |  |
| COc1cc(-c2cc3nn(C)cc3c(O[C@H](C)[C@H]3CNC(=O)C3)n2)ccc1OC1CCOCC1 [Example 73, (4R)-4-[(1R)-1-[6-(3-Methoxy-4-tetrahydropyran-4-yloxy-phenyl)-2-methyl-pyrazolo[4,3-c]pyridin-4-yl]oxyethyl]pyrrolidin-2-one] |  |  |  |  | 4.17 |  | 49.1 |

The next lines start with results.

| IC50 ([1]; read-out: IC50 in μM (SYK-Inhibition)) [µM] | IC50 (FLT3; read-out: IC50 in μM (FLT3-Inhibition)) [µM] | IC50 ([2]; read-out: IC50 in μM (AURB-Inhibition)) [µM] | IC50 [1, 3] [µM] | IC50 (FLT3; [4]) [µM] | IC50 [2, 5] [µM] | Compound | IC50 ([2]; read-out: AURB-inhibition IC50-value) [µM] |
| --- | --- | --- | --- | --- | --- | --- | --- |
|  |  |  | 0.0466 | 17.4 | > 50 | C[C@@H](Oc1nc(-c2cnn(C3CCCCO3)c2)cc2nn(C)cc12)[C@H]1CNC(=O)C1 (some centres unmarked) [Example 3] |  |
|  |  |  | 0.0147 | 5.77 | 37.3 | C[C@@H](Oc1nc(-c2cnn(C3CCCCC3)c2)cc2nn(C)cc12)[C@H]1CNC(=O)C1 [Example 7, (R)-4-((R)-1-(6-(1-cyclohexyl-1H-pyrazol-4-yl)-2-methyl-2H-pyrazolo[4,3-c]pyridin-4-yloxy)ethyl)pyrrolidin-2-one] |  |
|  |  |  | 0.0424 | 3.67 | > 50 | C[C@@H](Oc1nc(-c2cnn(C3CCNCC3)c2)cc2nn(C)cc12)[C@H]1CNC(=O)C1 [Example 9, (4R)-4-[(1R)-1-[2-Methyl-6-[1-(4-piperidyl)pyrazol-4-yl]pyrazolo[4,3-c]pyridin-4-yl]oxyethyl]pyrrolidin-2-one] |  |
|  |  |  | 0.0218 | 8.03 | 36 | C[C@@H](Oc1nc(-c2cnn(C3CCC(F)(F)CC3)c2)cc2nn(C)cc12)[C@H]1CNC(=O)C1 [Example 10, (4R)-4-[(1R)-1-[6-[1-(4,4-Difluorocyclohexyl)pyrazol-4-yl]-2-methyl-pyrazolo[4,3-c]pyridin-4-yl]oxyethyl]pyrrolidin-2-one] |  |
|  |  |  | 0.0123 | 8.33 | 34.1 | C[C@@H](Oc1nc(-c2cnn([C@H]3CC[C@H](N4CCN(C)C(=O)C4)CC3)c2)cc2nn(C)cc12)[C@H]1CNC(=O)C1 [Example 12, 1-methyl-4-[4-[4-[2-methyl-4-[(1R)-1-[(3R)-5-oxopyrrolidin-3-yl]ethoxy]pyrazolo[4,3-c]pyridin-6-yl]pyrazol-1-yl]-cyclohexyl]piperazin-2-one] |  |
|  |  |  | 0.0554 | 9.52 | 48 | C[C@@H](Oc1nc(-c2ccc(C3CC3)nc2)cc2nn(C)cc12)[C@H]1CNC(=O)C1 [Example 50, (4R)-4-[(1R)-1-[6-(6-Cyclopropyl-3-pyridyl)-2-methyl-pyrazolo[4,3-c]pyridine-4-yl]oxyethyl]pyrrolidin-2-one] |  |
|  |  |  |  | 7.78 | > 50 | C[C@@H](Oc1nc(-c2cnn(C3CCN(C)CC3)c2)cc2nn(C)cc12)[C@H]1CNC(=O)C1 [Example 82, (4R)-4-[(1R)-1-[2-Methyl-6-[1-(1-methyl-4-piperidyl)pyrazol-4-yl]pyrazolo [4,3-c]pyridin-4-yl]oxyethyl]pyrrolidin-2-one] |  |

Source: patent US9914735B2, “Heteroaryl Syk inhibitors” (Boehringer Ingelheim International GmbH, priority 2014, dated 2018)
